The target of assay [1] is T1, DP receptor (Homo sapiens, UniProt Q13258).
T1 construct: endogenous in cells; host or cells: washed platelets from peripheral blood of a healthy volunteer (whole platelets in A1, platelet membrane fraction in A2)
T1 sequence (Q13258 1-359): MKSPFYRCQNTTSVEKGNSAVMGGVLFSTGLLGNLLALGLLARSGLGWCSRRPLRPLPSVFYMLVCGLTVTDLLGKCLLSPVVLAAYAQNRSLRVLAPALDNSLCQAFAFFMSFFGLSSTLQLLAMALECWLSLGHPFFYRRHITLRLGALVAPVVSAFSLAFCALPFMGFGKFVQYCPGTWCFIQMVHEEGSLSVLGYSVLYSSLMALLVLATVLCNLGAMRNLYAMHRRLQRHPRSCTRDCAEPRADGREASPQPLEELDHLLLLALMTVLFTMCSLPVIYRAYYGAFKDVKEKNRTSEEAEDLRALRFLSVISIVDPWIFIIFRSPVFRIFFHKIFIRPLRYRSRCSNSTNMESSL
Description: cAMP assay with washed platelets (DP inhibitory activity in vitro). It counts as cell-based. The settings on record: 100 nM PGD2, cAMP by HTRF, read-out: IC50 (50% DP-inhibitory concentration in the cAMP assay). On the procedure: 1) Preparation of Platelet and a Method of cAMP Assay
30 ml of peripheral blood was collected from a healthy volunteer using a syringe containing one ninth amount of 3.8% sodium citrate for diagnosis. After being centrifuged at 180 g for 10 minutes at room temperature, a supernatant was collected and used as Platelet Rich Plasma (PRP). The resulting PRP was washed with wash buffer and centrifuged three times (Washed Platelet: WP) and platelets were counted by a microcell counter. WP was added to a plate in amount of 1.5×10^8/assay and the plate was treated, with 3-isobutyl-1-methylxanthin (IBMX; 0.5 mM) for 5 minutes. A reaction was initiated by adding 100 nM of PGD2 5 min after an addition of a test compound. The reaction was terminated with an addition of 1N HCl after 2 minutes and the cells were destructed using 12% triton X-100. An amount of cAMP in the supernatant was assayed by Homogeneous […] (HTRF)

Assay [2] deals with T1, DP receptor. The assay is described as follows: Receptor binding assay, [3H]-PGD2, platelet membrane. Conditions: [3H]-PGD2, human platelet membrane, on ice 2 hours. On the procedure:
2) Receptor Binding Assay A prepared WP was homogenated and a membrane fraction was collected with high-speed centrifugation. A compound of the present invention or a reference compound A(No. IC-73 in WO 2003/097598) was added to the plate and [^3H]-PGD2 was also added. A platelet membrane, a protein concentration is 2 mg/mL, was added and mixed in the plate, and placed on ice for 2 hours. The reaction solution was transferred to a low protein-adsorptive filter and washed with a wash solution eight times using a cell harvester. After the final washing, water was removed sufficiently, and micoscinti was added. DP inhibitory activity was investigated by measuring [^3H] by using Micro Beta.

Another assay has as its system Brown Norway (BN) Rats. The assay is described as follows: Test using OVA asthma model of rat. The settings on record: 10 mg/kg p.o. once a day for three days, vs control group; for inhibition rate (%) increased hyperresponsive airway: AUC of acetylcholine response curve; for inhibition rate (%) mucus-secretion: mucin in airway lavage fluid; for inhibition rate (%) infiltration of inflammatory cells: total cell number in bronchoalveolar washings. In kind it is in vivo. As to the method:
Brown Norway (BN) Rats were sensitized by i.p. administration of 0.1 mg/mL of ovalbumin (OVA) and 1 mg of aluminum hydroxide gel. A solution of 1% OVA was aerosolized by ultrasonic nebulizer (NE-U17) and the rats were subjected to inhalation exposure of the aerosol for 30 minutes in an exposing chamber 12, 19, 26 and 33 days after the sensitization. One hour before the 4th exposure of the antigen, compounds of the present invention were administered in a dose of 10 mg/kg p.o. once a day for three days consecutively. In a control group, 0.5% of methyl cellulose was administered in place of the compound of the present invention.
Under pentobarbital anesthesia (80 mg/kg, i.p.), acetylcholine (3.9, 7.8, 15.6, 31.3, 62.5, 125, 250 and 500 μg/kg) was injected to jugular vein of the rats successively from a lower dose at intervals of 5 minutes three days after the fourth exposure to the antigen, and immediate contractile reaction of airways (an increase of insufflation pressure) was measured by a modified method of Konnzett & Rössler. Inhibition rate of increased hyperresponsive airway against the control group was calculated based on area under curve (AUC) obtained from concentration-response curve of acetylcholine.
After the measurement of increased hyperresponsive airway was; completed, bronchoalveoli of the rats were washed with 5 mL of saline three times. Total cell number in the washings was counted by a hemacytometer under light microscope, and inhibition rates of infiltration of inflammatory cells against the control group were calculated. Further, muchin in the airway lavage fluid was measured by ELIZA method using jacalin, a muchin-binding lectin, and the inhibition rates of mucus-secretion against the control group were calculated.

Take `CC(C)Oc1ccc(S(=O)(=O)N2CCC(c3cn(CC(=O)O)c4ccc(Cl)cc34)CC2)cc1` [Compound I-3]: the IC50 on DP receptor [1] came out at 1.3 nM. The same compound displayed a Ki on DP receptor [2] of 1.3 nM.
As to `CC(C)Oc1ccc(S(=O)(=O)N2CCC(c3cn(CC(=O)O)c4ccc(F)cc34)C2)cc1` (stereo not drawn) [Compound I-9], at DP receptor [1], the IC50 stood at 2.3 nM. Further, on DP receptor [2], the Ki worked out at 4.5 nM.
For `CC(C)Oc1ccc(S(=O)(=O)N2CCC(c3cn(CC(=O)O)c4ccc(Cl)cc34)C2)cc1` (stereo not drawn) [Compound I-10], in that order: 1 nM and 2.5 nM.
Consider `CC(C)Oc1ccc(S(=O)(=O)N2CCC(c3cn(CC(=O)O)c4cc(Cl)ccc34)C2)cc1` (stereo not drawn) [Compound I-14], for which the IC50 at DP receptor [1] came to 0.98 nM. This compound displayed a Ki at DP receptor [2] of 2.1 nM. In addition, in the assay with Brown Norway (BN) Rats, the “inhibition rate (%) increased hyperresponsive airway” value was 31%, the “inhibition rate (%) mucus-secretion” value came out at 55% and the “inhibition rate (%) infiltration of inflammatory cells” value (shortened to “inhibition rate (%) infiltration”) is recorded as 57%.
For the compound `CC(C)Oc1ccc(S(=O)(=O)N2CCC(c3cn(CC(=O)O)c4c(Cl)cccc34)C2)cc1` (stereo not drawn) [Compound I-19], the IC50 at DP receptor [1] worked out at 1.3 nM. This compound also showed an inhibition constant (Ki) at DP receptor [2] of 4.2 nM.
For `CC(C)Oc1ccc(S(=O)(=O)N2CCC(c3cn(CC(=O)O)c4ccc(F)cc34)CC2)cc1` [Compound I-23], in that order: 1.9 nM and 2.2 nM.
With `CC(C)Oc1ccc(S(=O)(=O)N2CCC(c3cn(CC(=O)O)c4cc(F)ccc34)C2)cc1` (stereo not drawn) [Compound I-34], at DP receptor [1], the IC50 stood at 2.3 nM. In addition, the Ki on DP receptor [2] was 3.4 nM.
Take `CCOc1ccc(S(=O)(=O)N2CCC(c3cn(CC(=O)O)c4ccc(Cl)cc34)C2)cc1` (stereo not drawn) [Compound I-38]: the IC50 at DP receptor [1] is 2 nM. Moreover, on DP receptor [2], the affinity corresponds to a Ki of 4.7 nM.
For `CC(C)Oc1ccc(S(=O)(=O)N2CCC(c3cn(CC(=O)O)c4c(Cl)cc(Cl)cc34)C2)cc1` (stereo not drawn) [Compound I-45], in that order: 1.5 nM and 19 nM.
For the compound `CC(C)Sc1ccc(S(=O)(=O)N2CCC(c3cn(CC(=O)O)c4ccc(Cl)cc34)C2)cc1` (stereo not drawn) [Compound I-59], the IC50 at DP receptor [1] is 1.1 nM.
For the compound `CC(C)Oc1ccc(S(=O)(=O)N2CCC(c3cn(CC(=O)O)c4cc(Br)ccc34)C2)cc1` (stereo not drawn) [Compound I-60], the IC50 at DP receptor [1] worked out at 0.73 nM. The same compound registered a Ki on DP receptor [2] of 3.5 nM.
As for `CC(C)Oc1ccc(S(=O)(=O)N2CC[C@@H](c3cn(CC(=O)O)c4ccc(Cl)cc34)C2)cc1` [Compound I-65], on DP receptor [1], the IC50 was 0.34 nM. Moreover, the affinity at DP receptor [2] corresponds to a Ki of 2.3 nM. Further, in the assay with Brown Norway (BN) Rats, the “inhibition rate (%) increased hyperresponsive airway” value was found to be 62%, the “inhibition rate (%) mucus-secretion” value is 40% and the “inhibition rate (%) infiltration” value was 61%.
As for `CC(C)Oc1ccc(S(=O)(=O)N2CCC(c3cn(CC(=O)O)c4cc(-c5cccs5)ccc34)C2)cc1` (stereo not drawn) [Compound I-66], the IC50 at DP receptor [1] was found to be 1.9 nM.
The same measure, in the same setting: the figure for `CC(C)Oc1ccc(S(=O)(=O)N2CCC(c3cn(CC(=O)O)c4cc(-c5ccsc5)ccc34)C2)cc1` (stereo not drawn) [Compound I-67] is 1.4 nM.
For the compound `CC(C)Oc1ccc(S(=O)(=O)N2CCC(c3cn(CC(=O)O)c4cc(-c5ccc(C#N)cc5)ccc34)C2)cc1` (stereo not drawn) [Compound I-72], the IC50 at DP receptor [1] was found to be 2.2 nM.
Take `CC(C)Oc1ccc(S(=O)(=O)N2CCC(c3cn(CC(=O)O)c4cc(-c5cccc(C#N)c5)ccc34)C2)cc1` (stereo not drawn) [Compound I-73]: the IC50 on DP receptor [1] stood at 2 nM.
Still for that read-out and setting: the figure for `COc1ccc(-c2ccc3c(C4CCN(S(=O)(=O)c5ccc(OC(C)C)cc5)C4)cn(CC(=O)O)c3c2)cc1` (stereo not drawn) [Compound I-74] is 1.9 nM.
For `CC(C)Oc1ccc(S(=O)(=O)N2CCC(c3cn(CC(=O)O)c4cc(-c5ccncc5)ccc34)C2)cc1.Cl` (stereo not drawn) [Compound I-75], the IC50 at DP receptor [1] was 1.7 nM. The same compound had an inhibition constant (Ki) on DP receptor [2] of 0.66 nM. Moreover, in the assay on Brown Norway (BN) Rats, the “inhibition rate (%) increased hyperresponsive airway” value came out at 58%, the “inhibition rate (%) mucus-secretion” value is recorded as 77% and the “inhibition rate (%) infiltration” value is listed as 71%.
Regarding `CC(C)Oc1ccc(S(=O)(=O)N2CCC(c3cn(CC(=O)O)c4cc(-c5ccoc5)ccc34)C2)cc1` (stereo not drawn) [Compound I-78], the IC50 on DP receptor [1] was 1.2 nM.
As for `CC(C)Oc1ccc(S(=O)(=O)N2CC[C@@H](c3cn(CC(=O)O)c4cc(Cl)ccc34)C2)cc1` [Compound I-79], the IC50 at DP receptor [1] was 0.19 nM. Besides, the Ki on DP receptor [2] was found to be 0.91 nM.
Consider `CC(C)Oc1ccc(S(=O)(=O)N2CCC(c3cn(CC(=O)O)c4cc(-c5ccc6c(c5)OCO6)ccc34)C2)cc1` (stereo not drawn) [Compound I-80], for which, on DP receptor [1], the IC50 came to 1.4 nM.
Take `COc1cccc(-c2ccc3c(C4CCN(S(=O)(=O)c5ccc(OC(C)C)cc5)C4)cn(CC(=O)O)c3c2)c1` (stereo not drawn) [Compound I-81]: the IC50 at DP receptor [1] is 0.86 nM.
Take `CC(C)Oc1ccc(S(=O)(=O)N2CCC(c3cn(CC(=O)O)c4cc(N5CCOCC5)ccc34)C2)cc1.Cl` (stereo not drawn) [Compound I-82]: in the assay with Brown Norway (BN) Rats, the “inhibition rate (%) increased hyperresponsive airway” value worked out at 59%, the “inhibition rate (%) mucus-secretion” value was 47% and the “inhibition rate (%) infiltration” value is given as 35%.
Turning to `CC(C)Oc1ccc(S(=O)(=O)N2CCC(c3cn(CC(=O)O)c4cc(Br)ccc34)C2)cc1F` (stereo not drawn) [Compound I-86], at DP receptor [1], the IC50 was found to be 1.3 nM.
Take `CC(C)Oc1ccc(S(=O)(=O)N2CCC(c3cn(CC(=O)O)c4cc(-c5nnco5)ccc34)C2)cc1` (stereo not drawn) [Compound I-88]: the IC50 at DP receptor [1] is 1.2 nM. The affinity at DP receptor [2] corresponds to a Ki of 2.5 nM.
For `CC(C)Oc1ccc(S(=O)(=O)N2CCC(c3cn(CC(=O)O)c4cc(-c5nccs5)ccc34)C2)cc1` (stereo not drawn) [Compound I-93], in that order: 0.5 nM and 0.24 nM.
In the same order, the values of `CC(C)Oc1ccc(S(=O)(=O)N2CC[C@@H](c3cn(CC(=O)O)c4cc(-c5nccs5)ccc34)C2)cc1` [Compound I-96] are 0.23 nM and 0.21 nM.
With `CC(C)Oc1ccc(S(=O)(=O)N2CCC(c3cn(CC(=O)O)c4cc(C#N)ccc34)CC2)cc1` [Compound I-98], the IC50 on DP receptor [1] is 0.97 nM.
Same read-out and setting: for `CC(C)Oc1ccc(S(=O)(=O)N2CCC(c3cn(CC(=O)O)c4cc(-c5ccccn5)ccc34)CC2)cc1` [Compound I-99] the value was 1.9 nM; for `CC(C)Oc1ccc(S(=O)(=O)N2CCC(c3cn(CC(=O)O)c4cc(-c5nccs5)ccc34)CC2)cc1` [Compound I-100], 1.9 nM.
For the compound `CC(C)Oc1ccc(S(=O)(=O)N2CC[C@@H](c3cn(CC(=O)O)c4cc(-c5ccco5)ccc34)C2)cc1` [Compound I-101], on DP receptor [1], the IC50 came out at 0.27 nM. On DP receptor [2], this compound yielded a Ki of 0.21 nM.
Turning to `CC(C)Oc1ccc(S(=O)(=O)N2CCC(c3cn(CC(=O)O)c4cc(-c5nncs5)ccc34)CC2)cc1` [Compound I-102], on DP receptor [1], the IC50 amounted to 0.56 nM.
Turning to `CC(C)Oc1ccc(S(=O)(=O)N2CCC(c3cn(CC(=O)O)c4cc(-c5ncco5)ccc34)CC2)cc1` [Compound I-104], the IC50 on DP receptor [1] worked out at 1.2 nM. The inhibition constant Ki at DP receptor [2] was 1.3 nM.
Turning to `CC(C)Oc1ccc(S(=O)(=O)N2CCC(c3cn(CC(=O)O)c4cc(N5CCCC5=O)ccc34)C2)cc1` (stereo not drawn) [Compound I-107], the IC50 on DP receptor [1] turned out to be 2.3 nM.

One may read the Ki as a dissociation constant, usually derived from enzyme kinetics or from competition with a known ligand. A low value points to higher affinity.

For the origin of these results see patent US7956082B2, “Indole derivative having PGD2 receptor antagonist activity” (Shionogi & Co., Ltd, priority 2005, dated 2011).
